Data on two compounds can be found in PMC10057980, “Pharmacokinetics of Orally Applied Cannabinoids and Medical Marijuana Extracts in Mouse Nervous Tissue and Plasma: Relevance for Pain Treatment” (Pharmaceutics, 2023).

Data set [1] concerns mechanical hypersensitivity in spared nerve injury (SNI) mice. Kind of data set: Von Frey mechanical thresholds in the spared nerve injury (SNI) model. In kind it is in vivo, C57BL/6J mice. The conditions noted are these: day 7 after surgery, single oral dose: 20 mg/kg pure CBD or THC, 40 mg/kg THC+ extract, 1560 mg/kg THC- extract, CBD effect at 4 h, p = 0.022 vs vehicle. The protocol:
SNI surgery was performed as previously described. In short, mice were anesthetized by intraperitoneal (i.p.) injections of 10 mg/kg Xylazine (AniMedica GmbH—a LIVISTO company, Senden, Germany) and 100 mg/kg Ketamine (AniMedica GmbH—a LIVISTO company, Senden, Germany). The skin on the lateral surface of the thigh was incised and the sciatic nerve exposed by separating the biceps femoris muscle through incision of the connective tissue without wounding the muscle. The common peroneal and tibial nerves were ligated with 4-0 Vicryl (Sh-1 plus; Raritan, NJ, USA) and a portion of 3 mm length was excised around the ligation site. Care was taken to avoid any mechanical damage to the sural nerve. After dissection, the muscle and skin were sutured using 4-0 Vicryl. Mice were left to recover at 37 °C until they regained consciousness.
The von Frey test was performed as previously described. In brief, mice were placed in a Plexiglas chamber on an elevated iron-mesh floor and allowed to habituate before testing. […] Withdrawal thresholds were calculated according to the up-and-down method. Von Frey results were analysed using repeated measure ANOVA.

Details of data set [2]: method as in PMID 12648025, PMID 17712819, PMID 30534073. The note with it: cited from earlier work.
Details of data set [3]: method as in PMID 21796370. The note with it: CBD orally given to mice; cited from earlier work.
Data set [4] is described as follows: Cannabinoid and metabolite concentrations in plasma, brain and spinal cord after single oral gavage (LC-MS/MS, non-compartmental PK). The conditions noted are these: mice.
The mark [5] stands for this setting: high dose, oral gavage (40 mg/kg THC+ extract, 20 mg/kg pure THC), plasma, brain and spinal cord.

For the compound `C=C(C)[C@@H]1CCC(C)=C[C@H]1c1c(O)cc(CCCCC)cc1O` [CBD, cannabidiol], in data set [1], the “effect on mechanical withdrawal thresholds (von Frey)” value is “alleviated mechanical hypersensitivity”. Moreover, the “time detectable in organs including the brain after application” value in data set [2] is on record as “more than 24 h”. In addition, the “brain–plasma ratio” value in data set [3] is 3.54. Further, the “time of maximum CBD concentration” value in data set [4] (pure CBD compound, 1 and 20 mg/kg bodyweight, oral) is recorded as 2 h. Besides, in data set [4] (pure compounds, oral, brain), the “absorption rate of CBD compared with THC, brain” value amounted to 2.8 fold. For the same compound, the “absorption rate of CBD compared with THC, spinal cord” value in data set [4] (pure compounds, oral, spinal cord) was found to be 1.7 fold.

Turning to `CCCCCc1cc(O)c2c(c1)OC(C)(C)[C@@H]1CCC(C)=C[C@@H]21` [pure THC, Δ9-Tetrahydrocannabinol], the “effect on mechanical withdrawal thresholds (von Frey)” value in data set [1] is reported as “did not affect mechanical withdrawal thresholds”. Moreover, the “time detectable in organs including the brain after application” value in data set [2] is “more than 24 h”. Besides, in data set [4] (high dose, oral (40 mg/kg THC+ extract, 20 mg/kg pure THC), brain tissue), the “time of peak concentration of OH-THC” value came out at 2 h. In data set [4] (setting [5]), the “time at which Δ9-THC was detectable in all tissues” value is recorded as 1 h and the “time of maximum Δ9-THC concentration” value is listed as 2 h. For the same compound, the “Δ9-THC concentrations in all sample types” value in data set [4] (low dose, oral gavage (2 mg/kg THC+ extract, 1 mg/kg pure THC), plasma, brain and spinal cord) is “negligible concentrations”.
